Values quoted from earlier work, collected in patent publication US6696071B2, “Pre-coital and post-coital rinse with anti-viral and skin-protective zinc salts” (priority 2001, dated 2004).

Conditions: ionic dissociation in water

SMILES: O=C[O-].O=C[O-].[Zn+2] [Zinc formate]
- Reported pK values, pK1 (pK1): 0.6
- Reported pK values, pK2 (pK2): 0.95
